Results published in patent publication US8663669B2, “Pesticide treatment of soils or substrates with sulphur compounds” (Arkema France, priority 2002, dated 2014).

Key:
[1] = system: young tomato plants (13 cm, 3 leaves, JUMBO hybrid); assay: Phytotoxicity on young tomato plants; type: in vivo
Procedure: For both types of crop, 4 treatments were performed on 20 plants: • untreated control • 360 kg/ha of DMDS • 540 kg/ha of DMDS • 720 kg/ha of DMDS
Five days after the treatment, the young plants are transplanted into pots 20 cm in diameter and 35 cm in height.
The observations relating to the number of leaves per plant and the visual state of the plants are carried out 15 and 41 days after the transplantation: […]

Sclerotinia sclerotiorum = assay: Fungicidal efficacy by gassing, sclerotia; type: cell-based; design: Vitality score Nm (over 19 days): scale not given here; Reduction in viability RV / Reduction in vitality score RNm: unit not given here; conditions: for Reduction in viability RV / Reduction in vitality score RNm: compared with the control
Procedure: These four organisms are the following:
Sclerotinia sclerotiorum: polyphagous fungus which attacks mainly melon crops.
• Sclerotinia sclerotiorum: sclerotia • Sclerotium rolfsii: sclerotia • Rhizoctonia solani: colonized barley grains (mycelium and sclerotia) • Phytophthora cactorum: colonized millet grains (mycelium, sporangia and oospores) Preparation of the Fungi (24 h Before the Gassing Operation) 1. Preparation of the sclerotia of Sclerotinia sclerotiorum and of Sclerotium rolfsii: The fungi are cultured on malt agar medium until the sclerotia are obtained. The sclerotia are collected in a sterile manner and stored dry in empty Petri dishes until they are used. The sclerotia used for the trial are over 3 months old and are perfectly dormant. 2. Preparation of Phytophthora cactorum and of Rhizoctonia solani: The millet and barley used for the multiplication of the two fungi are moistened with ultrapure water by immersing for 24 hours. The grains are then slightly drained and then distributed into flasks and autoclaved (3 autoclavings at 110° C. for 20 minutes, 3 times at 24 hour intervals). Fragments of fungal culture are introduced into the flasks which are then incubated at 22° C.±2° C. (white light 18 h) until homogeneous colonization is obtained. The grains are then removed from the flasks in a sterile manner, dried in the sterile stream of a safety cabinet and then stored in the dry state until they are used. Conditions for Gassing and for Desorption
All the batches of fungi to be treated are placed for a few hours at the trial temperature (20° C.). Between 35 and 300 units of fungi or “propagules” (grains or sclerotia) are subjected to gassing during each trial.
Each fumigation chamber comprising to one or more species of fungi corresponds to a glass round-bottomed flask which is impervious to the gas and has a volume of 11 litres. Each round-bottomed flask is equipped with branch connections, one at the bottom for introducing the liquid DMDS, one at the top for collecting the air sample with a syringe.
Before introducing the gas, a partial vacuum (−500 mbar) is established in the round-bottomed flask with a vacuum pump. This makes it possible, on the one hand, to avoid the phenomenon of excess pressure due to the expansibility of DMDS in the round-bottomed flask and, on the other hand, to promote better homogeneity of the air-gas mixture in the first few seconds which follow injection. The DMDS (weighed accurately to the mg) is injected with a syringe, in liquid form, through the bottom branch connection, that is to say under the screen placed at half height of the round-bottomed flask and supporting the batches of fungi. After introducing the product, the internal pressure of the round-bottomed flask is re-established at atmospheric pressure. A magnetic stirrer operates during the entire duration of the treatment in order to properly homogenize the air-gas mixture.
At the end of the gassing, the cover for the round-bottomed flask is removed. One minute after this operation, the batches of fungi gassed are taken out and left in the open air for 15 minutes for desorption of the DMDS. They are then transferred into a Petri dish, the latter remaining open for 5 minutes to allow perfect desorption of the gas.
The mean concentration (C in g/m^3) of DMDS in the fumigation chamber after homogenization of the gas in the chamber air is measured by GC with an FID detector and, taking into account the duration of exposure (T in hours), the product CT (g·h/m^3) is calculated which, in the field of fumigation, is the key parameter to be considered, since the biological efficacy of a gas towards a given pathogenic agent is only effective if the latter was exposed to a certain mean concentration C for a certain duration of exposure T, that is to say to a certain value of the product CT, a value (or dose) which can be reached in different ways: low concentrations and long duration of exposure or conversely. […]

[2] = CT 1 050 g·h/m^3 (C 15.91 g/m^3, T 66 h)
[3] = CT 1 402 g·h/m^3 (C 21.24 g/m^3, T 66 h)
[4] = CT 1 450 g·h/m^3 (C 30.96 g/m^3, T 48 h)
[5] = CT 1 899 g·h/m^3 (C 28.77 g/m^3, T 66 h)
[6] = CT 1 981 g·h/m^3 (C 30.02 g/m^3, T 66 h)
[7] = CT 2 460 g·h/m^3 (C 51.25 g/m^3, T 48 h)
[8] = CT 2 471 g·h/m^3 (C 37.44 g/m^3, T 66 h)
[9] = CT 2 837 g·h/m^3 (C 42.98 g/m^3, T 66 h)
[10] = CT 2 974 g·h/m^3 (C 45.06 g/m^3, T 66 h)
[11] = CT 3 169 g·h/m^3 (C 48.02 g/m^3, T 66 h)
[12] = CT 3 467 g·h/m^3 (C 52.53 g/m^3, T 66 h), called an abnormal point
[13] = CT 419 g·h/m^3 (C 17.46 g/m^3, T 24 h)
[14] = CT 625 g·h/m^3 (C 26.04 g/m^3, T 24 h)
[15] = CT 703 g·h/m^3 (C 29.29 g/m^3, T 24 h)
[16] = CT 907 g·h/m^3 (C 37.79 g/m^3, T 24 h)

For `CSSC` [DMDS, dimethyl disulphide], the “Visual symptom of phytotoxicity” value ([1]; 360, 540, 720 kg/ha, 15 and 41 days after transplantation) was “no visual symptom of phytotoxicity”, the “Average number of leaves per plant” value ([1]; 360 kg/ha DMDS (formulation A), after 15 days) was 5.3 and the “Average number of leaves per plant” value ([1]; 360 kg/ha DMDS (formulation A), after 41 days) was 9.6. For the same compound, the “Average number of leaves per plant” value ([1]; 540 kg/ha DMDS (formulation A), after 15 days) was 5.3, the “Average number of leaves per plant” value ([1]; 540 kg/ha DMDS (formulation A), after 41 days) was 9.4 and the “Average number of leaves per plant” value ([1]; 720 kg/ha DMDS (formulation A), after 15 days) was 5.7. For the same compound, the “Average number of leaves per plant” value ([1]; 720 kg/ha DMDS (formulation A), after 41 days) was 9.8, the “Difference in number of leaves between untreated control and treated plants” value ([1]; regardless of the concentration tested (360-720 kg/ha)) was “no significant difference” and the “Viability V” value (Sclerotinia sclerotiorum; [2]) was 41.8%. The “Vitality score Nm (over 19 days)” value (Sclerotinia sclerotiorum; [2]) was 5.1, the “Reduction in viability RV” value (Sclerotinia sclerotiorum; [2]) was 56.1 and the “Reduction in vitality score RNm” value (Sclerotinia sclerotiorum; [2]) was 63.6. The “Viability V” value (Sclerotinia sclerotiorum; [3]) was 46.8%, the “Vitality score Nm (over 19 days)” value (Sclerotinia sclerotiorum; [3]) was 1.3 and the “Reduction in viability RV” value (Sclerotinia sclerotiorum; [3]) was 50.9. The “Reduction in vitality score RNm” value (Sclerotinia sclerotiorum; [3]) was 90.6, the “Viability V” value (Sclerotinia sclerotiorum; [4]) was 29.8% and the “Vitality score Nm (over 19 days)” value (Sclerotinia sclerotiorum; [4]) was 1.0. For the same compound, the “Reduction in viability RV” value (Sclerotinia sclerotiorum; [4]) was 65.8, the “Reduction in vitality score RNm” value (Sclerotinia sclerotiorum; [4]) was 92.1 and the “Viability V” value (Sclerotinia sclerotiorum; [5]) was 29.6%. For the same compound, the “Vitality score Nm (over 19 days)” value (Sclerotinia sclerotiorum; [5]) was 3.6, the “Reduction in viability RV” value (Sclerotinia sclerotiorum; [5]) was 68.9 and the “Reduction in vitality score RNm” value (Sclerotinia sclerotiorum; [5]) was 74.8. The “Viability V” value (Sclerotinia sclerotiorum; [6]) was 20.3%, the “Vitality score Nm (over 19 days)” value (Sclerotinia sclerotiorum; [6]) was 2.7 and the “Reduction in viability RV” value (Sclerotinia sclerotiorum; [6]) was 78.7. For the same compound, the “Reduction in vitality score RNm” value (Sclerotinia sclerotiorum; [6]) was 81.2, the “Viability V” value (Sclerotinia sclerotiorum; [7]) was 14.6% and the “Vitality score Nm (over 19 days)” value (Sclerotinia sclerotiorum; [7]) was 0.7. The “Reduction in viability RV” value (Sclerotinia sclerotiorum; [7]) was 83.2, the “Reduction in vitality score RNm” value (Sclerotinia sclerotiorum; [7]) was 94.9 and the “Viability V” value (Sclerotinia sclerotiorum; [8]) was 32.9%. The “Vitality score Nm (over 19 days)” value (Sclerotinia sclerotiorum; [8]) was 4.6, the “Reduction in viability RV” value (Sclerotinia sclerotiorum; [8]) was 67.1 and the “Reduction in vitality score RNm” value (Sclerotinia sclerotiorum; [8]) was 70.5. The “Viability V” value (Sclerotinia sclerotiorum; [9]) was 14.1%, the “Vitality score Nm (over 19 days)” value (Sclerotinia sclerotiorum; [9]) was 1.8 and the “Reduction in viability RV” value (Sclerotinia sclerotiorum; [9]) was 85.2. For the same compound, the “Reduction in vitality score RNm” value (Sclerotinia sclerotiorum; [9]) was 87.5, the “Viability V” value (Sclerotinia sclerotiorum; [10]) was 11.2% and the “Vitality score Nm (over 19 days)” value (Sclerotinia sclerotiorum; [10]) was 1.6. For the same compound, the “Reduction in viability RV” value (Sclerotinia sclerotiorum; [10]) was 88.8, the “Reduction in vitality score RNm” value (Sclerotinia sclerotiorum; [10]) was 89.9 and the “Viability V” value (Sclerotinia sclerotiorum; [11]) was 0%. The “Vitality score Nm (over 19 days)” value (Sclerotinia sclerotiorum; [11]) was 0, the “Reduction in viability RV” value (Sclerotinia sclerotiorum; [11]) was 100 and the “Reduction in vitality score RNm” value (Sclerotinia sclerotiorum; [11]) was 100. The “Viability V” value (Sclerotinia sclerotiorum; [12]) was 32.3%, the “Vitality score Nm (over 19 days)” value (Sclerotinia sclerotiorum; [12]) was 3.3 and the “Reduction in viability RV” value (Sclerotinia sclerotiorum; [12]) was 67.7. For the same compound, the “Reduction in vitality score RNm” value (Sclerotinia sclerotiorum; [12]) was 79.0, the “Viability V” value (Sclerotinia sclerotiorum; [13]) was 89.7% and the “Vitality score Nm (over 19 days)” value (Sclerotinia sclerotiorum; [13]) was 13.3. The “Reduction in viability RV” value (Sclerotinia sclerotiorum; [13]) was −3.0, the “Reduction in vitality score RNm” value (Sclerotinia sclerotiorum; [13]) was −3.6 and the “Viability V” value (Sclerotinia sclerotiorum; [14]) was 87.8%. For the same compound, the “Vitality score Nm (over 19 days)” value (Sclerotinia sclerotiorum; [14]) was 12.8, the “Reduction in viability RV” value (Sclerotinia sclerotiorum; [14]) was −0.8 and the “Reduction in vitality score RNm” value (Sclerotinia sclerotiorum; [14]) was 0.1. For the same compound, the “Viability V” value (Sclerotinia sclerotiorum; [15]) was 85.4%, the “Vitality score Nm (over 19 days)” value (Sclerotinia sclerotiorum; [15]) was 12.6 and the “Reduction in viability RV” value (Sclerotinia sclerotiorum; [15]) was 2.0. For the same compound, the “Reduction in vitality score RNm” value (Sclerotinia sclerotiorum; [15]) was 2.2, the “Viability V” value (Sclerotinia sclerotiorum; [16]) was 81.6% and the “Vitality score Nm (over 19 days)” value (Sclerotinia sclerotiorum; [16]) was 12.0. The “Reduction in viability RV” value (Sclerotinia sclerotiorum; [16]) was 6.3 and the “Reduction in vitality score RNm” value (Sclerotinia sclerotiorum; [16]) was 6.6.
